The results in this text go back to patent US20090093460A1, “Compositions” (AstraZeneca AB, priority 2003, published 2009).

The target in one assay is T1, Adrenergic α1A (Rattus norvegicus, UniProt P43140).
T1 construct: 203100
T1 sequence (P43140 1-466): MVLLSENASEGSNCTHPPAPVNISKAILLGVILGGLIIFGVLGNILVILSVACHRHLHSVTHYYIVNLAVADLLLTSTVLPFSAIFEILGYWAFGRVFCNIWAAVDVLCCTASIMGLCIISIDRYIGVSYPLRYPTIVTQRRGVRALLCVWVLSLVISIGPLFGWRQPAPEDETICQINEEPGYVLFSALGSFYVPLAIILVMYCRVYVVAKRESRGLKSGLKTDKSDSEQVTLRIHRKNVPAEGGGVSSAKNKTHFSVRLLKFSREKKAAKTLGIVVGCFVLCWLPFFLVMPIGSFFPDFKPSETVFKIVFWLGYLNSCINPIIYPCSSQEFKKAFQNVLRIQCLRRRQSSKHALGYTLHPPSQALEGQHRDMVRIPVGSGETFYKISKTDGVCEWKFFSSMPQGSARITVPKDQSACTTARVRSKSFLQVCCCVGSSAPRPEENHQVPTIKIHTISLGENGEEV
The experiment in a line: Radioligand binding 203100 Adrenergic α1A. From the text: (§1) Receptor binding methods, (α-adrenergic subtype specific, are provided below.

The target of the next assay is T2, Adrenergic α1B (Rattus norvegicus, UniProt P15823).
T2 construct: 203200
T2 sequence (P15823 1-515): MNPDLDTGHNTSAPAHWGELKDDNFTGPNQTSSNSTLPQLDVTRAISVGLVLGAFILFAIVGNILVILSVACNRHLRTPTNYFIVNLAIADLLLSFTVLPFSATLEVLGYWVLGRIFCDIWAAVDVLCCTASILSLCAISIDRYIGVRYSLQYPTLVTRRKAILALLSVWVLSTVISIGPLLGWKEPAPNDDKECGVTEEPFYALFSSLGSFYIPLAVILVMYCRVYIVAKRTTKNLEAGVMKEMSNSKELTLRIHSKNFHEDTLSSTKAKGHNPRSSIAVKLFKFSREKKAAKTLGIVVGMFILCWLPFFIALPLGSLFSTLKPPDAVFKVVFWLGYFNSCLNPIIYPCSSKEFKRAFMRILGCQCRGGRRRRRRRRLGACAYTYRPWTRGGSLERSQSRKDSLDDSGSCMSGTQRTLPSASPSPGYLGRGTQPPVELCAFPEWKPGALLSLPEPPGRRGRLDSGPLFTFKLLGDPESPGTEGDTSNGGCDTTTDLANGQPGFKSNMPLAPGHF
The experiment in a line: Radioligand binding 203200 Adrenergic α1B.
Source text: as §1

The target in another assay is T3, Adrenergic α2C (Homo sapiens, UniProt P18825).
T3 sequence (P18825 1-462): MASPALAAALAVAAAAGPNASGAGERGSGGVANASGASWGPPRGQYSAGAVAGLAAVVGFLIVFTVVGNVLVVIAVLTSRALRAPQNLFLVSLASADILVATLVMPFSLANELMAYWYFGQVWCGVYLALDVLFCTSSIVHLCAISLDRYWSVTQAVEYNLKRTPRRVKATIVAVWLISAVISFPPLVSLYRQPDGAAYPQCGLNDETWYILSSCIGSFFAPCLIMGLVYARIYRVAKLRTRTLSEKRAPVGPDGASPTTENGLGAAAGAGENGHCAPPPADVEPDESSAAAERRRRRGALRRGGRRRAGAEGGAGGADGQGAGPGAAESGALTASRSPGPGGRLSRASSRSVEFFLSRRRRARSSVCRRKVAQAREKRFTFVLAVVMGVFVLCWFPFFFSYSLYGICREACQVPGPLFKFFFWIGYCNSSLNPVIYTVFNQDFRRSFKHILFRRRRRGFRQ
Put plainly: Radioligand binding Adrenergic α2C.

Another assay deals with H1 receptor (Homo sapiens, UniProt P35367). The experiment in a line: H1 receptor binding. As for the experimental part: The H1 receptor binding method was carried out in accordance with the method set out in De Backer M D et al. Biochem. Biophys. Res Commun. 197 (3); 1601, 1993.
Chain of H1 receptor (P35367 whole entry): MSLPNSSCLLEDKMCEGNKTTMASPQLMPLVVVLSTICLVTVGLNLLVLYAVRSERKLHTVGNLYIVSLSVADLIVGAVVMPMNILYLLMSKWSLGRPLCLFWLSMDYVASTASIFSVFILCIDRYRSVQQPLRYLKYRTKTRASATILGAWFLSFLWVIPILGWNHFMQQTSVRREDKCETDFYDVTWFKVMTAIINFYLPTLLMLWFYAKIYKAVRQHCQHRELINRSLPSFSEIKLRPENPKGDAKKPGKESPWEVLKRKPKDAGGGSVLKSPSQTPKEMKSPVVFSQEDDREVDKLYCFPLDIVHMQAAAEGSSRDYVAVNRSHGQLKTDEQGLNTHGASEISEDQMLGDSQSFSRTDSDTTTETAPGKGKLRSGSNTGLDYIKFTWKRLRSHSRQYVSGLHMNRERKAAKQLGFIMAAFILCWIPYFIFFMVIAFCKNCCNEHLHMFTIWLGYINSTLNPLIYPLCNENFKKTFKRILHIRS
The next assay has as its target T4, 5-HT1A receptors (Homo sapiens, UniProt P08908).
T4 sequence (P08908 1-422): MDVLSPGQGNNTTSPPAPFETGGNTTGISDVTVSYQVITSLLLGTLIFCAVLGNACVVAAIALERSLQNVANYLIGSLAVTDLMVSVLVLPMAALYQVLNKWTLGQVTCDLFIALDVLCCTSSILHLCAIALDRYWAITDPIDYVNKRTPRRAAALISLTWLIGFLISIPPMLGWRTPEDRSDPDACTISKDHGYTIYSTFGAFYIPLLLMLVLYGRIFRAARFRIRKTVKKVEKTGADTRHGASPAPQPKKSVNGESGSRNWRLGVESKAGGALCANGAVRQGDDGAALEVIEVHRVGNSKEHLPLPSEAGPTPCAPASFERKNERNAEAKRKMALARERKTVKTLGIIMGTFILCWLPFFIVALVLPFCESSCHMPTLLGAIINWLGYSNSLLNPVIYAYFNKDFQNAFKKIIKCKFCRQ
The experiment in a line: In vitro assay of 5HT1A agonism (GTPγ35S, CHO membranes). Type of assay: biochemical. Also on record: expressed in transfected cells; host or cells: CHO. As for the experimental part:
CHO membranes (10 μg protein) expressing human 5-HT1A receptors were incubated in 100 μl of 20 mM HEPES, pH 7.4 assay buffer containing 10 mM MgCl2, 100 mM NaCl, 0.1% BSA, 20 μM GDP, 200 μg WGA-PVT beads (Amersham RPNQ0001), 200 pM GTPγ^35S (Perkin Elmer NEG-030H). 11-piperazin-1-yldibenzo[b,f][1,4]thiazepine was incubated with the above at 11 different concentrations varying from 10 μM to 170 pM in Packard OptiPlates with shaking for 1.5 hours at room temperature. […] The plates were centrifuged to settle the beads and measured in a Parkard TopCount.

The IC50 is the concentration at which inhibition is half-maximal. A word on the inhibition: it is how much of the control response was suppressed. A higher inhibition goes with strong suppression. By EC50 is commonly meant the midpoint of the concentration-response curve.

Read-outs that look alike come from different tables or passages of the source.

As to `c1ccc2c(c1)N=C(N1CCNCC1)c1ccccc1S2` [11-piperazin-1-yldibenzo[b,f][1,4]thiazepine], the IC50 was determined as 268 ± 12 nM at Adrenergic α1A and 5640 ± 1010 nM at Adrenergic α2C. For the same compound, the n at Adrenergic α1A is recorded as 1.03 ± 0.089; on Adrenergic α1B, 1.1 ± 0.024; on Adrenergic α2C, 1.1 ± 0.079. Also, at 0.3 µM the inhibition on Adrenergic α1A (0.3 μM) was 51%. In addition, the Ki on Adrenergic α1A (read-out: ki) was 108 ± 5 nM; at Adrenergic α1A (α1A, read-out: Affinity), 108 nM; at Adrenergic α1B (read-out: ki), 75 ± 9 nM; on Adrenergic α1B (α1B, read-out: Affinity), 75 nM; at Adrenergic α2C (read-out: ki) it was 820 ± 146 nM; at Adrenergic α2C (α2C, read-out: Affinity) it was 820 nM. At H1 receptor, this compound showed a Ki of 1.15 nM. Testing at 0.1 µM at Adrenergic α1B (0.1 μM) gave an inhibition of 50%. Besides, 10 µM produced 58% inhibition on Adrenergic α2C (10 μM). For the same compound, at 5-HT1A receptors (GTPγ35S, CHO membranes), a half-maximal response (EC50) required 310 nM. Moreover, the Emax on 5-HT1A receptors (read-out: maximum efficacy) came out at 66%.
